Test results from BindingDB's records for doi:10.1124/jpet.105.097303 (Temple University, 2006).

Assays:
[1] = target: T1, 1-phosphatidylinositol 4,5-bisphosphate phosphodiesterase delta-4 (Rattus norvegicus, UniProt Q62711)
T1 sequence (Q62711 whole entry): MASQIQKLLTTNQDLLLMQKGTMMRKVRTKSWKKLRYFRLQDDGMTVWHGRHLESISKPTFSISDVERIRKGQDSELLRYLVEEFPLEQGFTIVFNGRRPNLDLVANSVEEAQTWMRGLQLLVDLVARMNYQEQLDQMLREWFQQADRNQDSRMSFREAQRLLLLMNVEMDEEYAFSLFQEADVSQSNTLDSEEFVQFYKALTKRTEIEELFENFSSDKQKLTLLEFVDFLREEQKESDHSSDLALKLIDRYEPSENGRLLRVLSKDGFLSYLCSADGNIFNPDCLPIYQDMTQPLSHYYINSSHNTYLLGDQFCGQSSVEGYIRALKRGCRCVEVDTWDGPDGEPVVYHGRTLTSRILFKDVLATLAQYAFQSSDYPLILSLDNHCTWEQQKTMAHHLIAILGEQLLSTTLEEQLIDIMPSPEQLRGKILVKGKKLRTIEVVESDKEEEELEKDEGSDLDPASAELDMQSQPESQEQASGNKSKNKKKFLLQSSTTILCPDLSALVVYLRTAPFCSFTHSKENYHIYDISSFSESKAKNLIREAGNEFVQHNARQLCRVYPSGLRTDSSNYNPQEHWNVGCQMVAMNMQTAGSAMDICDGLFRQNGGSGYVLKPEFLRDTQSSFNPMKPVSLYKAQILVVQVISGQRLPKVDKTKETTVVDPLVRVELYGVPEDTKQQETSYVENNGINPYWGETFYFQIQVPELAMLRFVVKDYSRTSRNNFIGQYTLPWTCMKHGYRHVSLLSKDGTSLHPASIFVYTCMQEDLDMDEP

[2] = target: T2, 1-phosphatidylinositol 4,5-bisphosphate phosphodiesterase beta-1 (Rattus norvegicus, UniProt P10687)
T2 sequence (P10687 whole entry): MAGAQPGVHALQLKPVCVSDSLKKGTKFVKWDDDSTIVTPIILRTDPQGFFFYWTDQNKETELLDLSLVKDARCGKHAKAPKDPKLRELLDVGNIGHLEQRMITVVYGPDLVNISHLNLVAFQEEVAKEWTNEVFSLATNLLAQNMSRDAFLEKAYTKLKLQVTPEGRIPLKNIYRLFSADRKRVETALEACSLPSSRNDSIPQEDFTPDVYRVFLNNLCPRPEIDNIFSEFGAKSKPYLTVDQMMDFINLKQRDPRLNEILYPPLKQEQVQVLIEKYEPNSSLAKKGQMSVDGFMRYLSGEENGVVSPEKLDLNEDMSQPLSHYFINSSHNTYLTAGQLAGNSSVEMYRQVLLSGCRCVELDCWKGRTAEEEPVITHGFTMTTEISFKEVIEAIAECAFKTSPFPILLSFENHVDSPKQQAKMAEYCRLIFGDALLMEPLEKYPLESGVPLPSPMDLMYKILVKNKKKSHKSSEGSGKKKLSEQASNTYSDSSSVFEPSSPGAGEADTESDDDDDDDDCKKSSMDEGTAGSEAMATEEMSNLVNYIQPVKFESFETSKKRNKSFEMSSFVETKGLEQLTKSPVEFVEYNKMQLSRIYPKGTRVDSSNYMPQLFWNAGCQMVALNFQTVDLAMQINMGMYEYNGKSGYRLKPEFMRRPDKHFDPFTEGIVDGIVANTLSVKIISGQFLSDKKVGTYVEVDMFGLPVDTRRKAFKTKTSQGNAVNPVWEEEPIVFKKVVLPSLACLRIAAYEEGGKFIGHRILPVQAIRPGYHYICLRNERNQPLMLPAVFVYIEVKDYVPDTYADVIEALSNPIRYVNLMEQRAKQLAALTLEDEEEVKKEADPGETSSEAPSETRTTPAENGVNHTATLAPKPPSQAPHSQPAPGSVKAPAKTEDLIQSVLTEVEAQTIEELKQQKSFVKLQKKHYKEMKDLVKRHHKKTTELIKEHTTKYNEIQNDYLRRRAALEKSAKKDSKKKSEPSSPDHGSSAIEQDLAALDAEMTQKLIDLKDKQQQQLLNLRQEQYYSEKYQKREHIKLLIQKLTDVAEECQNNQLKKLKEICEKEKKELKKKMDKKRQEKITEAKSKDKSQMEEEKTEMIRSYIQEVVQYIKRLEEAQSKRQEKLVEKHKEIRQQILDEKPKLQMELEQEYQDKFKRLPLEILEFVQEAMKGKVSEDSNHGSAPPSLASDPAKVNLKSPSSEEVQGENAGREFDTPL

[3] = target: T3, cGMP-dependent protein kinase 1 (Homo sapiens, UniProt Q13976)
T3 sequence (Q13976 whole entry): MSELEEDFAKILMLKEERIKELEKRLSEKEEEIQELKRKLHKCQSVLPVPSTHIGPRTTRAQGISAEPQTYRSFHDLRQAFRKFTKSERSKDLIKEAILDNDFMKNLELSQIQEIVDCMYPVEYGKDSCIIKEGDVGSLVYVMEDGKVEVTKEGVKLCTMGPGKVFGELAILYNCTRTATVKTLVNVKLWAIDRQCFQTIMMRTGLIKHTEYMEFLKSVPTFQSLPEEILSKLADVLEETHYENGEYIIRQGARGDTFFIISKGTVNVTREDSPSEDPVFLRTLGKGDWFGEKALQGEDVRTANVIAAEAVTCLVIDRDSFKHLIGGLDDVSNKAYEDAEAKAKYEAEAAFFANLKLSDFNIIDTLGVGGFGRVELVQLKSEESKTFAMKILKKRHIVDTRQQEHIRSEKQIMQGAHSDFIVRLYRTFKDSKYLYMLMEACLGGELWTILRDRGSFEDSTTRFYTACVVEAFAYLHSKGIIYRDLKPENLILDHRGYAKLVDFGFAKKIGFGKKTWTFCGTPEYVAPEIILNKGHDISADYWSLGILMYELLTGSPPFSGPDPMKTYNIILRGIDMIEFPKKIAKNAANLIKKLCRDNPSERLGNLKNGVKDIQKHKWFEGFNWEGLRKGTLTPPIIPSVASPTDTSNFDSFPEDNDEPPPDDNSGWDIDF

[4] = target: cAMP-dependent protein kinase catalytic subunit beta (Rattus norvegicus, UniProt P68182)
[5] = target: Rho-associated protein kinase 2 (Rattus norvegicus, UniProt Q62868)
[6] = target: Protein kinase C alpha type (Rattus norvegicus, UniProt P05696)

Sequence of Rho-associated protein kinase 2 (Q62868 whole entry): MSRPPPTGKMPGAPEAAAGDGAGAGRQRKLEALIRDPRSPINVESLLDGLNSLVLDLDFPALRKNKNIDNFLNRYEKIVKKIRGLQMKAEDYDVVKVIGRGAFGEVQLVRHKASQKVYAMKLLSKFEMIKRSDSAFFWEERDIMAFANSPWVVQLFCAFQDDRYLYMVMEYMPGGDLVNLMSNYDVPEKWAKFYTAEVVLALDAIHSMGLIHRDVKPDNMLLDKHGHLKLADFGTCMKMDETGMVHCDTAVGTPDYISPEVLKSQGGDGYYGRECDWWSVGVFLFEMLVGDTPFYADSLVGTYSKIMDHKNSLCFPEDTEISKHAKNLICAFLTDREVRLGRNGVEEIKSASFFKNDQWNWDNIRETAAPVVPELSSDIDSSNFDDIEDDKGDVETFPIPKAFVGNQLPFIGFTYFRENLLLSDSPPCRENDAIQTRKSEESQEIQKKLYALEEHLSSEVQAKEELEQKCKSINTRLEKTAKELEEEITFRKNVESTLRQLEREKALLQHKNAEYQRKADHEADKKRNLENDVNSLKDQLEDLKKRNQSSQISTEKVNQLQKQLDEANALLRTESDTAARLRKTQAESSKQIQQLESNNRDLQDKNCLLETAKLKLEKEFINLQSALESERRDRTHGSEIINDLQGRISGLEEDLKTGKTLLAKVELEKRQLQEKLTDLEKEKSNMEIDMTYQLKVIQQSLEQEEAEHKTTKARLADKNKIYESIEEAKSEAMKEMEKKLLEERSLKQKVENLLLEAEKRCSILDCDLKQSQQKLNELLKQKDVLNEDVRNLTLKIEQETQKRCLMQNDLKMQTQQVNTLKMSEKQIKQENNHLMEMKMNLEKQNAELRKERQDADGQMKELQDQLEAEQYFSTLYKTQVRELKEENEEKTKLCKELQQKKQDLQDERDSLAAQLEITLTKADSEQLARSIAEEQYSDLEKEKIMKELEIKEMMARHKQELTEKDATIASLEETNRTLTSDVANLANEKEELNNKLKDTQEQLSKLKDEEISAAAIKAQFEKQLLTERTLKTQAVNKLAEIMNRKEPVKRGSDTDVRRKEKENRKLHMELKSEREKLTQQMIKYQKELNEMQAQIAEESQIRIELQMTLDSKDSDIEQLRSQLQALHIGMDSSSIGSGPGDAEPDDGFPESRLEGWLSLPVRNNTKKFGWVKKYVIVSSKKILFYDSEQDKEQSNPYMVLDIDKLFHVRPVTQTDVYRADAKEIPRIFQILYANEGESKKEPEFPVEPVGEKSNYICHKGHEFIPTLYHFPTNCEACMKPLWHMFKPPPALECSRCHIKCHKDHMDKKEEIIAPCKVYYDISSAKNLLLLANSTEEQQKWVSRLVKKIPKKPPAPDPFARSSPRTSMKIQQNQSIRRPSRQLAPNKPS

| Structure (SMILES) | Ki [2] [µM] | Ki [4] [µM] | Ki [5] [nM] | Ki [6] [µM] | other results |
| --- | --- | --- | --- | --- | --- |
| NC[C@@H]1O[C@H](O[C@H]2[C@@H](O)[C@H](O[C@@H]3[C@@H](O)[C@H](N)C[C@H](N)[C@H]3O[C@H]3O[C@H](CN)[C@@H](O)[C@H](O)[C@H]3N)O[C@@H]2CO)[C@H](N)[C@@H](O)[C@@H]1O [KDR Kinase Inhibitor, 3] | 5 | – | – | – | Ki [1]: 5 µM |
| CCCCCCCCCCCCCCCCCCOC[C@H](COP(=O)([O-])OCC[N+](C)(C)C)OC [CAS_77286-66-9] | 5 | – | – | – | – |
| O=S(=O)(NCCNC/C=C/c1ccc(Br)cc1)c1cccc2cnccc12 | – | 0.05 | 270 | – | Ki [3]: 500 nM |
| C[C@@H](N)[C@H]1CC[C@H](C(=O)Nc2ccncc2)CC1 [Y-27632] | – | 25 | 100 | 26 | – |
| COc1ccc2c(c[n+](C)c3c4cc5c(cc4ccc23)OCO5)c1OC | – | – | – | 0.66 | – |
